Reference: patent US20220144815A1, “1,3,4-OXADIAZOLES AND THEIR DERIVATIVES AS NEW ANTIFUNGAL AGENTS” (Bayer Aktiengesellschaft, priority 2018, published 2022)

Assay: Log P by HPLC on reversed phase columns, method [a] (EEC directive 79/831 Annex V.A8)
Assay type: physicochemical
Conditions: not given
Method in brief: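 Log P calibrated with C3–C16 straight-chain alkan-2-ones of known Log P, interpolating linearly between retention times. Method per EEC 79/831 Annex V.A8: reversed-phase LC-UV in the acidic range, water/0.1% formic acid and acetonitrile gradient from 10% to 95% acetonitrile.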

Compound	chromatographic logP
CC(Nc1ncc(-c2nnc(C(F)F)o2)cn1)c1ccc(Cl)nc1 (racemic) [I.214, N-[(1RS)-1-(6-chloropyridin-3-yl)ethyl]-5-[5-(difluoromethyl)-1,3,4-oxadiazol-2-yl]pyrimidin-2-amine]	2.27

Same assay, conditions: log P determined according to method [a] (HPLC on reversed phase columns)

logP	Compound
2.75	CSc1ccc(-c2nnc(C(F)F)o2)cc1 [Example I-002]
2.33	FC(F)c1nnc(-c2cnc(NC3(C4CC4)CC3)nc2)o1 [Example I-082]
2.51	Cc1ccccc1Nc1ncc(-c2nnc(C(F)F)o2)cn1 [Example I-086]
1.87	FC(F)c1nnc(-c2cnc(N3CCOCC3)nc2)o1 [Example I-074]
2.94	CCc1noc(-c2ccc(-c3nnc(C(F)F)o3)cc2)n1 [Example I-015]
1.66	O=C(O)c1ccc(-c2nnc(C(F)F)o2)cc1 [Example I-001]
2.43	Fc1ccccc1Nc1ncc(-c2nnc(C(F)F)o2)cn1 [Example I-093]
2.80	CN(c1ccccc1)c1ncc(-c2nnc(C(F)F)o2)cn1 [Example I-087]
2.98	FC(F)c1nnc(-c2cnc(-c3ccccc3)nc2)o1 [Example I-069]
2.79	Fc1ccc(C2(Nc3ccc(-c4nnc(C(F)F)o4)cn3)CC2)cc1 [Example I-054]
2.57	O=C(Nc1ccc(F)cc1F)c1ccc(-c2nnc(C(F)F)o2)cc1 [Example I-027]
3.81	Fc1ccccc1C1(Nc2ccc(-c3nnc(C(F)(F)Cl)o3)cn2)CC1 [Example I-057]
2.77	O=C(Nc1ccc(-c2nnc(C(F)F)o2)cn1)c1ccc(F)cc1F [Example I-055]
1.32	CNC(=O)c1ccc(-c2nnc(C(F)F)o2)cn1 [Example I-033]
2.44	FC(F)c1nnc(-c2ccc(-c3nnc(C(F)F)o3)cc2)o1 [Example I-019]
3.84	CC1(C)OB(c2ccc(-c3nnc(C(F)F)o3)cc2)OC1(C)C [Example I-021]
2.64	FC(F)c1nnc(-c2cnc(-c3ccsc3)nc2)o1 [Example I-072]

logP	Compound
1.55	COCCNC(=O)c1ccc(-c2nnc(C(F)F)o2)cn1 [Example I-047]
3.01	COc1ccc(-c2ncc(-c3nnc(C(F)F)o3)cn2)cc1 [Example I-089]
2.77	Fc1cccc(Nc2ncc(-c3nnc(C(F)F)o3)cn2)c1 [Example I-094]
1.23	CNc1ncc(-c2nnc(C(F)F)o2)cn1 [Example I-060]
2.33	FC(F)c1nnc(-c2ccc(-c3ccco3)nc2)o1 [Example I-035]
2.46	CN(C(=O)c1ccc(-c2nnc(C(F)F)o2)cc1)c1ccccc1 [Example I-022]
2.95	CC(Nc1ccc(-c2nnc(C(F)F)o2)cn1)c1ccc(F)cc1 (stereo not shown) [Example I-052]
1.14	CN(C)NC(=O)c1ccc(-c2nnc(C(F)F)o2)cn1 [Example I-042]
3.57	Fc1ccccc1C1(Nc2ccc(-c3nnc(C(F)F)o3)cc2)CC1 [Example I-025]
1.66	COC(=O)Nc1ccc(-c2nnc(C(F)F)o2)cn1 [Example I-038]
3.04	CN(C(=O)c1ccc(-c2nnc(C(F)(F)F)o2)cc1)c1ccccc1 [Example I-026]
0.11	Nc1ccc(-c2nnc(C(F)F)o2)cn1 [Example I-030]
2.57	O=C(Nc1ccccc1)Nc1ccc(-c2nnc(C(F)F)o2)cn1 [Example I-051]
2.33	Fc1cc(-c2ncc(-c3nnc(C(F)F)o3)cn2)ccn1 [Example I-079]
1.92	FC(F)c1nnc(-c2ccc(Cl)nc2)o1 [Example I-031]
1.55	FC(F)c1nnc(-c2cnc(Cl)nc2)o1 [Example I-061]
2.64	Fc1ccc(Nc2ncc(-c3nnc(C(F)F)o3)cn2)cc1 [Example I-095]

Same assay, conditions: reversed phase HPLC column; Method A: LC-UV, acidic range, 0.1% formic acid in water and acetonitrile; read-out: Log P

chromatographic logP	Compound
3.23	COC(=O)c1ccc(-c2nnc(C(F)(F)F)s2)cc1 [I.011, methyl 4-[5-(trifluoromethyl)-1,3,4-thiadiazol-2-yl]benzoate]

Same assay, conditions: reversed phase HPLC column; log P determined according to method [a] (HPLC on reversed phase columns); read-out: logP

chromatographic logP	Compound
1.64	COC(=O)C1(Nc2ncc(-c3nnc(C(F)F)o3)cn2)CC1 [I.104, methyl 1-({5-[5-(difluoromethyl)-1,3,4-oxadiazol-2-yl]pyrimidin-2-yl}amino)cyclopropanecarboxylate]
3.5	CCC(C)(Nc1ncc(-c2nnc(C(F)F)o2)cn1)c1ccccc1 (stereo not shown) [I.138, 5-[5-(difluoromethyl)-1,3,4-oxadiazol-2-yl]-N-(2-phenylbutan-2-yl)pyrimidin-2-amine]
3.3	Fc1ccccc1Nc1ncc(-c2nnc(C(F)(F)F)s2)cn1 [I.130, N-(2-fluorophenyl)-5-[5-(trifluoromethyl)-1,3,4-thiadiazol-2-yl]pyrimidin-2-amine]
2.86	C[C@@H](Nc1ncc(-c2nnc(C(F)F)o2)cn1)c1ccc(F)cc1 [I.125a, 5-[5-(difluoromethyl)-1,3,4-oxadiazol-2-yl]-N-[(1R)-1-(4-fluorophenyl)ethyl]pyrimidin-2-amine]

Same assay, conditions: reversed phase HPLC column; method [a], HPLC on reversed phase columns; read-out: logP

chromatographic logP	Compound
3.62	FC(F)c1nnc(-c2cnc(NC3(c4cccc(Oc5ccccc5)c4)CC3)nc2)o1 [I.265, 5-[5-(difluoromethyl)-1,3,4-oxadiazol-2-yl]-N-[1-(3-phenoxyphenyl)cyclopropyl]pyrimidin-2-amine]
3.63	FC(F)c1nnc(-c2cnc(NC3(c4cc(Cl)cc(Cl)c4)CC3)nc2)o1 [I.254, N-[1-(3,5-dichlorophenyl)cyclopropyl]-5-[5-(difluoromethyl)-1,3,4-oxadiazol-2-yl]pyrimidin-2-amine]
3.16	FC(F)c1nnc(-c2cnc(NC3(c4ccc(Cl)cc4)CC3)nc2)o1 [I.226, N-[1-(4-chlorophenyl)cyclopropyl]-5-[5-(difluoromethyl)-1,3,4-oxadiazol-2-yl]pyrimidin-2-amine]
2.91	CC(Nc1ncc(-c2nnc(C(F)F)o2)cn1)C1(C)CC1 (racemic) [I.186, 5-[5-(difluoromethyl)-1,3,4-oxadiazol-2-yl]-N-[(1RS)-1-(1-methylcyclopropyl)ethyl]pyrimidin-2-amine]
1.92	COC(=O)C(Nc1ncc(-c2nnc(C(F)F)o2)cn1)c1ccccn1 (stereo not shown) [I.222, methyl ({5-[5-(difluoromethyl)-1,3,4-oxadiazol-2-yl]pyrimidin-2-yl}amino)(pyridin-2-yl)acetate]
2.31	FC(F)c1nnc(-c2cnc(NC3(c4cc(Cl)ccn4)CC3)nc2)o1 [I.228, N-[1-(4-chloropyridin-2-yl)cyclopropyl]-5-[5-(difluoromethyl)-1,3,4-oxadiazol-2-yl]pyrimidin-2-amine]
1.49	CC(Nc1ncc(-c2nnc(C(F)F)o2)cn1)c1ncccn1 (racemic) [I.191, 5-[5-(difluoromethyl)-1,3,4-oxadiazol-2-yl]-N-[(1RS)-1-(pyrimidin-2-yl)ethyl]pyrimidin-2-amine]
2.95	Cc1cccc(C2(Nc3ncc(-c4nnc(C(F)F)o4)cn3)CC2)c1 [I.202, 5-[5-(difluoromethyl)-1,3,4-oxadiazol-2-yl]-N-[1-(3-methylphenyl)cyclopropyl]pyrimidin-2-amine]
3.53	CC(Nc1ncc(-c2nnc(C(F)F)o2)cn1)c1cccc(OC(F)(F)F)c1 (racemic) [I.257, 5-[5-(difluoromethyl)-1,3,4-oxadiazol-2-yl]-N-{(1RS)-1-[3-(trifluoromethoxy)phenyl]ethyl}pyrimidin-2-amine]
1.8	CC(Nc1ncc(-c2nnc(C(F)F)o2)cn1)c1cscn1 (racemic) [I.194, 5-[5-(difluoromethyl)-1,3,4-oxadiazol-2-yl]-N-[(1RS)-1-(1,3-thiazol-4-yl)ethyl]pyrimidin-2-amine]
2.81	COc1cccc(C2(Nc3ncc(-c4nnc(C(F)F)o4)cn3)CC2)c1F [I.236, 5-[5-(difluoromethyl)-1,3,4-oxadiazol-2-yl]-N-[1-(2-fluoro-3-methoxyphenyl)cyclopropyl]pyrimidin-2-amine]
3.45	CC(Nc1ncc(-c2nnc(C(F)F)o2)cn1)c1ccc2ccccc2c1 (racemic) [I.232, 5-[5-(difluoromethyl)-1,3,4-oxadiazol-2-yl]-N-[(1RS)-1-(2-naphthyl)ethyl]pyrimidin-2-amine]
3.84	FC(F)c1nnc(-c2cnc(NC3(c4cc(Cl)ccc4Cl)CC3)nc2)o1 [I.251, N-[1-(2,5-dichlorophenyl)cyclopropyl]-5-[5-(difluoromethyl)-1,3,4-oxadiazol-2-yl]pyrimidin-2-amine]
2.04	CC(Nc1ncc(-c2nnc(C(F)F)o2)cn1)c1ccc2ccccc2n1 (racemic) [I.233, 5-[5-(difluoromethyl)-1,3,4-oxadiazol-2-yl]-N-[(1RS)-1-(quinolin-2-yl)ethyl]pyrimidin-2-amine]
3.68	FC(F)c1nnc(-c2cnc(NC(Cc3ccccc3)c3ccccc3)nc2)o1 (racemic) [I.245, 5-[5-(difluoromethyl)-1,3,4-oxadiazol-2-yl]-N-[(1RS)-1,2-diphenylethyl]pyrimidin-2-amine]
3.52	FC(F)c1nnc(-c2cnc(NC(c3ccccc3)c3ccccc3)nc2)o1 [I.238, 5-[5-(difluoromethyl)-1,3,4-oxadiazol-2-yl]-N-(diphenylmethyl)pyrimidin-2-amine]
3.42	CC(Nc1ncc(-c2nnc(C(F)F)o2)cn1)c1ccccc1C(F)(F)F (racemic) [I.240, 5-[5-(difluoromethyl)-1,3,4-oxadiazol-2-yl]-N-{(1RS)-1-[2-(trifluoromethyl)phenyl]ethyl}pyrimidin-2-amine]
3.63	CC(C)(Nc1ncc(-c2nnc(C(F)F)o2)cn1)c1cccc(C(F)(F)F)c1 [I.256, 5-[5-(difluoromethyl)-1,3,4-oxadiazol-2-yl]-N-{2-[3-(trifluoromethyl)phenyl]propan-2-yl}pyrimidin-2-amine]
